Test results published in publication PMC6179248, “Peanut-specific T cell responses in patients with different clinical reactivity” (PLoS ONE, 2018).

What was measured:
[1] = test system: PBMC from peanut allergic and non-allergic donors (IFNγ production); experiment: IFNγ ELISPOT with individual peptides after 14-day in vitro expansion (epitope mapping); type: cell-based, human; details: SFC per 10^6 PBMC, individual peptide 10 μg/ml, 24 h, after 14-day culture; for IFNg Average SFC (allergics): allergic donors; for IFNg Average SFC (controls): non-allergic controls
Experimental: (§1) For in vitro expansions, PBMCs were thawed and cultured in RPMI 1640 (Omega Scientific, Tarzana, CA) supplemented with 5% human AB serum (Gemini Bio-Products, West Sacramento, CA) at a density of 2 × 10^6 cells per mL in 24-well plates (Corning, San Diego, CA) and stimulated with peanut extract (10 μg/ml) or peptide pools at 5 μg/mL. Cells were kept at 37°C, 5% CO2, and additional IL-2 (10 U/mL; ThermoFisher, San Diego, CA) was added every 3 days after initial antigenic stimulation. On day 14, cells were harvested and reactivity against peanut extract (10 μg/ml), peanut specific peptide pools (5 μg/ml) and individual peptides (10 μg/ml) was assessed. The production of IL-5 and IFNγ post-stimulation with peanut extract was analyzed in dual ELISPOT assays. Flat-bottom 96-well nitrocellulose plates (Millipore, Bedford, MA) were prepared according to the manufacturer’s instructions and coated with either 10 μg/ml of both anti-human IL-5 (clone TRFK5) and anti-human IFNγ (clone 1-D1K) or anti-human IL-10 (clone 9D7) and anti-human IL-17 (clone MT44.6) (Mabtech, Cincinnati, OH). PBMC were then incubated at a density of 1 × 10^5/well either with peptide pools (5 μg/ml) or individual peptides (10 μg/ml), peanut extract (10 μg/ml), PHA (10 μg/ml), or medium containing 0.25% DMSO (corresponding to the highest percentage of DMSO in the pools/peptides condition) as a control. After 24 h, cells were removed, and plates were incubated with a cocktail containing either biotinylated anti-human IL-5 (1:50 dilution) (clone 5A10) and horseradish peroxidase (HRP)-conjugated anti-human IFNγ (1:200 dilution) (clone 7-B6-1) or biotinylated anti-human IL-17 (1:200 dilution) (clone MT504) anti-human alkaline phosphatase (AP)-conjugated IL-10 (1:200 dilution) (clone 12G8) (Mabtech, Cincinnati, OH) at 37°C. After 2 h, spots corresponding to the biotinylated IL-5 Ab were developed by incubation with Alkaline-phosphatase-Complex (Vector Laboratories, Burlingame, CA) and then visualized by applying the Vector Blue Alkaline Phosphatase Substrate Kit III (Vector Laboratories, Burlingame, CA) according to the manufacturer’s instructions. Spots corresponding to the HRP-conjugated anti-human IFNγ Ab were visualized by incubation with 3-amino-9-ethylcarvazole solution (Sigma-Aldrich, St. Louis, MO). Spots were counted by computer-assisted image analysis (KS-ELISPOT reader, Zeiss, Munich). Each assay was performed in triplicate. The level of statistical significance was determined with a Student t test using the mean of triplicate values of the response against relevant pools or individual peptides versus the response against the DMSO control. Criteria for response positivity were 20 spot-forming cells (SFCs)/10^6 PBMC, p ≤ 0.05, and a stimulation index (SI) ≥ 2. SFCs are measured per 10^5 PBMC, subsequently readings are background subtracted and multiplied by 10 to be expressed as SFC per million PBMC. T cell epitope mapping was performed to determine epitopes from the major peanut allergens Ara h 1, 2 and 3, recognized by peanut allergic (n = 11) and non-allergic (n = 10) donors. As these studies were performed with samples obtained from pediatric patients, available blood sample volumes were limiting. To overcome this limitation, small pools of predicted peptides matched to the HLA molecules expressed in each donor were tested. For each donor, class II binding affinity predictions were performed using algorithms available through the IEDB (www.iedb.org)[18], to identify the top 6 predicted binders for each of the alleles expressed at the four HLA class II loci (DRB1, DRB3/4/5, DQB1, and DPB1). Accordingly, the screening load for each donor was reduced from 400 peptides to a maximum of 48 peptides (6 peptides x ≤8 class II molecules, less for homozygous donors). The six top predicted peptides for each allele were used to generate allele-specific pools, which were in turn used to expand peanut-specific cells in vitro. […]

[2] = test system: PBMC from peanut allergic and non-allergic donors (IL-5 production); experiment: IL-5 ELISPOT with individual peptides after 14-day in vitro expansion (epitope mapping); type: cell-based, human; details: SFC per 10^6 PBMC, individual peptide 10 μg/ml, 24 h, after 14-day culture; for IL-5 Average SFC (allergics): allergic donors; for IL-5 Average SFC (controls): non-allergic controls
Experimental: as §1

Sequence | IFNg Average SFC (allergics) [1] [SFC] | IFNg Average SFC (controls) [1] [SFC] | IL-5 Average SFC (allergics) [2] [SFC] | IL-5 Average SFC (controls) [2] [SFC]
AFQVDDRQIVQNLRG [Ara h 3 15-mer, position 276] | 0 | 0 | 85 | 10
AGVALSRLVLRRNAL [Ara h 3 15-mer, position 66] |  | 603 |  | 753
ALFLLAAHASARQQW [Ara h 2 15-mer, position 11] | 0 | 545 | 11 | 270
CMCEALQQIMENQSD [Ara h 2 15-mer, position 116] |  | 0 |  | 59
DADNILVIQQGQATV [Ara h 1 15-mer, position 231] | 0 | 37 | 25 | 0
DVFIMPAAHPVAINA [Ara h 1 15-mer, position 508] |  | 0 |  | 34
EQENEGSNIFSGFAQ [Ara h 3 15-mer, position 232] | 25 | 0 | 0 | 17
EQGAIVTVKGGLRIL [Ara h 3 15-mer, position 271] | 0 | 220 | 0 | 182
EQGAIVTVRGGLRIL [Ara h 3 15-mer, position 296] | 142 | 252 | 78 | 205
EYLAFKTDSRPSIAN [Ara h 3 15-mer, position 446; P19 pool member] | 0 | 270 | 307 | 50
EYVAFKTDSRPSIAN [Ara h 3 15-mer, position 471; P19 pool member] | 27 | 539 | 651 | 225
FCFLVLGASSISFRQ [Ara h 3 15-mer, position 11] |  | 0 |  | 25
FCVLVLGASSVTFRQ [Ara h 3 15-mer, position 11] | 22 | 0 | 0 | 28
FQNLQNHRIVQIEAK [Ara h 1 15-mer, position 206; P19 pool member] | 0 | 0 | 74 | 0
FQNLQNHRIVQIEAR [Ara h 1 15-mer, position 206] | 13 | 0 | 64 | 0
FVPHYTLNAHTIVVA [Ara h 3 15-mer, position 386] | 117 | 94 | 163 | 70
GGNIFSGFTPEFLAQ [Ara h 3 15-mer, position 261] | 62 | 0 | 0 | 141
GHALRIPSGFISYIL [Ara h 1 15-mer, position 261] | 0 | 0 | 0 | 1080

Sequence | IFNg Average SFC (allergics) [1] [SFC] | IFNg Average SFC (controls) [1] [SFC] | IL-5 Average SFC (allergics) [2] [SFC] | IL-5 Average SFC (controls) [2] [SFC]
GLRILSPDEEDESSR [Ara h 3 15-mer, position 281] |  | 293 |  | 403
GRIRVLQRFDQRSKQ [Ara h 1 15-mer, position 191; P19 pool member] | 49 | 197 | 253 | 66
GRIRVLQRFDQRSRQ [Ara h 1 15-mer, position 191; P19 pool member] | 19 | 168 | 227 | 105
GSNIFSGFAQEFLQH [Ara h 3 15-mer, position 237] |  | 0 |  | 29
GSRPHYRQISPRVRG [Ara h 3 15-mer, position 216] | 0 | 57 | 203 | 287
HVQVVDSNGNRVYDE [Ara h 3 15-mer, position 406; P19 pool member] | 0 | 240 | 385 | 0
ILVAPALFLLAAHAS [Ara h 2 15-mer, position 6] | 0 | 108 | 0 | 40
IPSGFISYILNRHDN [Ara h 1 15-mer, position 266] | 0 | 0 | 78 | 180
KAMVIVVINKGTGNL [Ara h 1 15-mer, position 451] |  | 43 |  | 53
KAMVIVVVNKGTGNL [Ara h 1 15-mer, position 451] | 42 | 28 | 108 | 0
LAGENSVIDNLPEEV [Ara h 3 15-mer, position 486; P19 pool member] | 0 | 0 | 306 | 23
LILRWLGLSAEYGNL [Ara h 3 15-mer, position 391] | 32 | 0 | 53 | 1880
LLGILVLASVSATHA [Ara h 1 15-mer, position 11] |  | 80 |  | 0
LLGILVLASVSATQA [Ara h 1 15-mer, position 11] |  | 145 |  | 0
LQDLDMMLTCVEIKE [Ara h 1 15-mer, position 426] | 0 | 158 | 0 | 403
MAKLLALSLCFCVLV [Ara h 3 15-mer, position 1] | 0 | 9 | 0 | 25
NELNLLILRWLGLSA [Ara h 3 15-mer, position 386] | 0 | 0 | 0 | 607
